Assay results as given in patent US11236068B2, “Fused ring compounds” (Genentech, Inc., priority 2018, dated 2022).
pEC50: −log10 of the molar value.

Molecular target: K-Ras G12C (Homo sapiens (Human), UniProt P01116, G12C)
Test: Western blot assay for in cell alkylation of K-Ras G12C (HCC1171 cells)
Type: cell-based
Settings: 18 hours at 37° C., 7 point dose response
Description: HCC1171 cells were maintained in RPMI1640 supplemented with 10% FBS. Cells were plated in a 96-well plate at 20,000 cells/well and the following day compounds were added to the cells. After 18 hours at 37° C., cells were lysed in RIPA buffer (Sigma RO278) with 0.5% SDS and protease/phosphatase inhibitor cocktail. After through mixing to enable complete lysis, the lysates were cleared by centrifugation before 20 µl was transferred from each well and combined with loading buffer and reducing agent. After heating for 10 minutes at 95° C., […] of each sample was loaded onto a 4-20% Tris-Glycine gel and electrophoresed at 110V for 165 minutes in SDS-PAGE running buffer. Gels were transferred to a nitrocellulose membrane, blocked for 1 hour and stained overnight at 4° C. with primary antibody against K-Ras (polyclonal Proteintech 12063-1-AP). The membrane was then washed thoroughly and counterstained with anti-rabbit IRDye 800CW (LI-COR 926-32211) for one hour at room temperature. After final washes, the membrane was imaged on a LI-COR Odyssey CLx at medium resolution. […] To quantify this affect, the LICOR software was used to draw a rectangle over alkylated and unalkylated bands for each well and measured the total fluorescent intensity (FI) in each of these bands. The following formula was then used to calculate % alkylation: FI(alkylated)/(FI(alkylated)+FI(unalkylated))*100 for each well.
A 7 point dose response curve was used to determine the IC50 for each compound. Cell alkylation data are presented below in Table 3.

Sequence of K-Ras G12C (P01116 other isoform, or with tags, fused parts or gaps G12C): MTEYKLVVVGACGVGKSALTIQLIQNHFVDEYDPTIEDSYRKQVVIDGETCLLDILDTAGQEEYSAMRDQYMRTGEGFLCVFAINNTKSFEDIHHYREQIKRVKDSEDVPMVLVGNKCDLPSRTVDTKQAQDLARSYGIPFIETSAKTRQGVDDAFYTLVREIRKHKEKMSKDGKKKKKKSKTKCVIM

Row | pEC50 | SMILES
1 | 6.35 | C=CC(=O)N1CCN(c2ncnc3cc(-c4nc(N)ccc4C(F)(F)F)c(Cl)cc23)CC1 [Example 35, 1-(4-[7-[6-amino-3-(trifluoromethyl)pyridin-2-yl]-6-chloroquinazolin-4-yl]piperazin-1-yl)prop-2-en-1-one]
2 | 5.26 | C=CC(=O)N1CCN(c2ncnc3cc(-c4nc(NC(=O)C5CC5)cc5ccccc45)c(Cl)cc23)CC1 [Example 36, N-(1-(4-(4-acryloylpiperazin-1-yl)-6-chloroquinazolin-7-yl)isoquinolin-3-yl)cyclopropanecarboxamide]
3 | 5.00 | C=CC(=O)N1CCN(c2ncnc3cc(-c4nc(NCC#N)cc5ccccc45)c(Cl)cc23)CC1 [Example 39, 2-[(1-[6-chloro-4-[4-(prop-2-enoyl)piperazin-1-yl]quinazolin-7-yl]isoquinolin-3-yl)amino]acetonitrile]
4 | 5.96 | C=CC(=O)N1CCN(c2ncnc3cc(-c4nc(N)ccc4OC(F)(F)F)c(Cl)cc23)CC1 [Example 40, 1-(4-[7-[6-amino-3-(trifluoromethoxy)pyridin-2-yl]-6-chloroquinazolin-4-yl]piperazin-1-yl)prop-2-en-1-one]
5 | 4.80 | C=CC(=O)N1CCN(c2ncnc3cc(-c4nc(N)ccc4C(F)F)c(Cl)cc23)CC1 [Example 41, 1-(4-[7-[6-amino-3-(difluoromethyl)pyridin-2-yl]-6-chloroquinazolin-4-yl]piperazin-1-yl)prop-2-en-1-one]
6 | 7.21 | C=CC(=O)N1CCN(c2ncnc3cc(-c4nc(N)cc(C)c4C(F)(F)F)c(Cl)cc23)CC1 [Example 44, 1-(4-[7-[6-amino-4-methyl-3-(trifluoromethyl)pyridin-2-yl]-6-chloroquinazolin-4-yl]piperazin-1-yl)prop-2-en-1-one]
7 | 5.62 | C=CC(=O)N1CCN(c2nc(NCCN(C)C)nc3cc(-c4nc(N)ccc4C(F)(F)F)c(Cl)cc23)CC1 [Example 45, 1-(4-[7-[6-amino-3-(trifluoromethyl)pyridin-2-yl]-6-chloro-2-[[2-(dimethylamino)ethyl]amino]quinazolin-4-yl]piperazin-1-yl)prop-2-en-1-one]
8 | 6.57 | C=C(F)C(=O)N1CCN(c2ncnc3cc(-c4nc(N)ccc4C(F)(F)F)c(Cl)cc23)C[C@@H]1C#N [Example 46b, (2R)-4-[7-[6-amino-3-(trifluoromethyl)pyridin-2-yl]-6-chloroquinazolin-4-yl]-1-(2-fluoroprop-2-enoyl)piperazine-2-carbonitrile]
9 | 5.41 | C=CC(=O)N1CCN(c2ncnc3cc(-c4nc(N)ccc4C4CC4)c(OC)cc23)CC1 [Example 47, 1-[4-[7-(6-amino-3-cyclopropylpyridin-2-yl)-6-methoxyquinazolin-4-yl]piperazin-1-yl]prop-2-en-1-one]
10 | 6.60 | C=CC(=O)N1CCN(c2ncnc3cc(-c4nc(N)cc5ccc(F)cc45)c(Cl)cc23)CC1 [Example 49, 1-[4-[7-(3-amino-7-fluoroisoquinoline-1-yl)-6-chloroquinazolin-4-yl]piperazin-1-yl]prop-2-en-1-one]
11 | 5.28 | C=CC(=O)N1CC(c2ncnc3cc(-c4nc(N)ccc4C(F)(F)F)c(Cl)cc23)C1 [Example 50, 1-(3-[7-[6-amino-3-(trifluoromethyl)pyridin-2-yl]-6-chloroquinazolin-4-yl]azetidin-1-yl)prop-2-en-1-one]
12 | 5.55 | C=CC(=O)N1CCN(c2ncnc3cc(-c4nc(N)ccc4CC(F)(F)F)c(Cl)cc23)CC1 [Example 51, 1-[4-[7-[6-amino-3-(2,2,2-trifluoroethyl)-2-pyridyl]-6-chloro-quinazolin-4-yl]piperazin-1-yl]prop-2-en-1-one]
13 | 7.07 | C=CC(=O)N1CCN(c2ncnc3cc(-c4nc(N)cc(CC)c4C(F)(F)F)c(Cl)cc23)CC1 [Example 52, 1-[4-[7-[6-amino-4-ethyl-3-(trifluoromethyl)-2-pyridyl]-6-chloro-quinazolin-4-yl]piperazin-1-yl]prop-2-en-1-one]
14 | 5.47 | C=CC(=O)N1CCN(c2ncnc3cc(-c4nc(NC)ccc4C(F)(F)F)c(Cl)cc23)CC1 [Example 53, 1-(4-[6-chloro-7-[6-(methylamino)-3-(trifluoromethyl)pyridin-2-yl]quinazolin-4-yl]piperazin-1-yl)prop-2-en-1-one]
15 | 6.85 | C=CC(=O)N1CCN(c2ncnc3cc(-c4nc(N)ccc4C(F)(F)F)c(Cl)cc23)[C@@H](C)C1 [Example 54, 1-[(3S)-4-[7-[6-amino-3-(trifluoromethyl)pyridin-2-yl]-6-chloroquinazolin-4-yl]-3-methylpiperazin-1-yl]prop-2-en-1-one]
16 | 7.59 | C=C(F)C(=O)N1CCN(c2nc(OC[C@@H]3CCCN3C)nc3cc(-c4nc(N)cc(C)c4C(F)(F)F)c(Cl)cc23)CC1CC#N (stereo partly drawn) [Example 55, 2-[4-[7-[6-amino-4-methyl-3-(trifluoromethyl)-2-pyridyl]-6-chloro-2-[[(2S)-1-methylpyrrolidin-2-yl]methoxy]quinazolin-4-yl]-1-(2-fluoroprop-2-enoyl)piperazin-2-yl]acetonitrile]
17 | 7.59 | C=C(F)C(=O)N1CCN(c2nc(OC[C@@H]3C[C@@H](F)CN3C)nc3cc(-c4nc(N)cc(C)c4C(F)(F)F)c(Cl)cc23)CC1CC#N (stereo partly drawn) [Example 56, 2-[4-[7-[6-amino-4-methyl-3-(trifluoromethyl)-2-pyridyl]-6-chloro-2-[[(2S,4R)-4-fluoro-1-methyl-pyrrolidin-2-yl]methoxy]quinazolin-4-yl]-1-(2-fluoroprop-2-enoyl)piperazin-2-yl]acetonitrile]
18 | 6.64 | C=C(F)C(=O)N1CCN(c2nc(OC[C@@H]3CCCN3C)nc3cc(-c4nc(N)cc(C)c4C(F)(F)F)c(Cl)cc23)CC1CF (stereo partly drawn) [Example 57, 1-[4-[7-[6-amino-4-methyl-3-(trifluoromethyl)-2-pyridyl]-6-chloro-2-[[(2S)-1-methylpyrrolidin-2-yl]methoxy]quinazolin-4-yl]-2-(fluoromethyl)piperazin-1-yl]-2-fluoro-prop-2-en-1-one]
19 | 7.48 | C=C(F)C(=O)N1CC(C)N(c2nc(OC[C@@H]3C[C@@H](F)CN3C)nc3cc(-c4nc(N)cc(C)c4C(F)(F)F)c(Cl)cc23)C[C@H]1CC#N (stereo partly drawn) [Example 58, 2-[(2R)-4-[7-[6-amino-4-methyl-3-(trifluoromethyl)-2-pyridyl]-6-chloro-2-[[(2S,4R)-4-fluoro-1-methyl-pyrrolidin-2-yl]methoxy]quinazolin-4-yl]-1-(2-fluoroprop-2-enoyl)-5-methyl-piperazin-2-yl]acetonitrile]
20 | 7.14 | C=CC(=O)N1C[C@H](C)N(c2ncnc3cc(-c4nc(N)cc(C)c4C(F)(F)F)c(Cl)cc23)[C@@H](C)C1 [Example 60, 1-[(3S,5S)-4-[7-[6-amino-4-methyl-3-(trifluoromethyl)-2-pyridyl]-6-chloro-quinazolin-4-yl]-3,5-dimethyl-piperazin-1-yl]prop-2-en-1-one]
21 | 7.26 | C=CC(=O)N1CCN(c2nc(OC[C@@H]3CCC4(CC4)N3C)nc3cc(-c4nc(N)ccc4C(F)(F)F)c(Cl)cc23)CC1 [Example 72, (S)-1-(4-(7-(6-amino-3-(trifluoromethyl)pyridin-2-yl)-6-chloro-2-((4-methyl-4-azaspiro[2.4]-heptan-5-yl)methoxy)quinazolin-4-yl)piperazin-1-yl)prop-2-en-1-one]
22 | 6.96 | C=CC(=O)N1CCN(c2nc(OCC3(C)CC(F)(F)CN3C)nc3cc(-c4nc(N)ccc4C(F)(F)F)c(Cl)cc23)CC1 (centres unmarked) [Example 73, 1-(4-(7-(6-amino-3-(trifluoromethyl)pyridin-2-yl)-6-chloro-2-((4,4-difluoro-1,2-dimethylpyrrolidin-2-yl)methoxy)quinazolin-4-yl)piperazin-1-yl)prop-2-en-1-one]
23 | 6.96 | C=CC(=O)N1CCN(c2nc(OC(C)(C)[C@@H]3CCCN3C)nc3cc(-c4nc(N)ccc4C(F)(F)F)c(Cl)cc23)CC1 [Example 74, 1-[4-[7-[6-amino-3-(trifluoromethyl)-2-pyridyl]-6-chloro-2-[1-methyl-1-[(2S)-1-methylpyrrolidin-2-yl]ethoxy]quinazolin-4-yl]piperazin-1-yl]prop-2-en-1-one]
24 | 6.85 | C=CC(=O)N1CCN(c2nc(OCCN3CC(CF)C3)nc3cc(-c4nc(N)ccc4C(F)(F)F)c(Cl)cc23)CC1 [Example 76, 1-(4-(7-(6-amino-3-(trifluoromethyl)pyridin-2-yl)-6-chloro-2-(2-(3-(fluoromethyl)azetidin-1-yl)ethoxy)quinazolin-4-yl)piperazin-1-yl)prop-2-en-1-one]
25 | 7.60 | C=CC(=O)N1CCN(c2nc(OC[C@@H]3[C@@H](F)CCN3C)nc3cc(-c4nc(N)ccc4C(F)(F)F)c(Cl)cc23)CC1 [Example 77, 1-[4-[7-[6-amino-3-(trifluoromethyl)-2-pyridyl]-6-chloro-2-[[(2R,3S)-3-fluoro-1-methyl-pyrrolidin-2-yl]methoxy]quinazolin-4-yl]piperazin-1-yl]prop-2-en-1-one]

Row | SMILES | pEC50
26 | C=CC(=O)N1CCN(c2nc(OC3CCCC3N(C)C)nc3cc(-c4nc(N)cc(C)c4C(F)(F)F)c(Cl)cc23)[C@@H](C)C1 (stereo partly drawn) [Example 66, 1-[(3S)-4-[7-[6-amino-4-methyl-3-(trifluoromethyl)-2-pyridyl]-6-chloro-2-[2-(dimethylamino)cyclopentoxy]quinazolin-4-yl]-3-methyl-piperazin-1-yl]prop-2-en-1-one] | 7.55
